Data: patent US8937182B2, “Synthesis for thiazolidinedione compounds” (Metabolic Solutions Development Company, LLC, priority 2010, dated 2015)

Tested on: KKA^Y mice
Test: Glucose, insulin and triglyceride in diabetic KKAy mice treated with exemplary compounds
Format: in vivo
Details: 93 mg/kg oral for 4 days, blood approx. 18 h after last dose, fasted, Vehicle A 24 (5)
Procedure: The insulin sensitizing and antidiabetic pharmacology are measured in the KKA^Y mice as previously reported [Hofmann, C., Lornez, K., and Colca, J. R. (1991). Glucose transport deficiency corrected by treatment with the oral anti-hyperglycemic agent Pioglitazone. Endocrinology, 129:1915-1925.] Compounds are formulated in 1% sodium carboxy methylcellulose, and 0.01% tween 20 and dosed daily by oral gavage.
Glucose, Insulin, and Triglyceride in Diabetic KKAy Mice Treated with Exemplary Compounds of the Present Invention.
The insulin sensitizing and antidiabetic pharmacology are measured in the KKA^Y mice as previously reported [Hofmann, C., Lornez, K., and Colca, J. R. (1991). Glucose transport deficiency corrected by treatment with the oral anti-hyperglycemic agent Pioglitazone. Endocrinology, 129:1915-1925.]. Compounds are formulated in 1% sodium carboxy methylcellulose, and 0.01% tween 20 and dosed daily by oral gavage.
Compounds were formulated by suspension and orally dosed to KKA^Y mice at 93 mg/kg for 4 days. The compounds were first dissolved in DMSO and then placed into aqueous suspension containing 7-10% DMSO, 1% sodium methylcarboxycellulose, and 0.01% Tween 20. On the fifth day, the mice were fasted and blood samples were obtained approximately 18 hours after the last dose. The parameters were measured by standard assay methods. Data are mean and SEM N=6-12 mice.

| SMILES | Insulin (Mean/SD) |
| --- | --- |
| O=C1NC(=O)C(Cc2ccc(OCC(=O)c3ccc(F)cc3)cc2)S1 (stereo not drawn) [Compound 2, 5-{4-[2-(4-fluorophenyl)-2-oxoethoxy]benzyl}-1,3-thiazolidine-2,4-dione] | 0.10 |
| O=C1NC(=O)C(Cc2ccc(OCC(=O)c3ccccc3F)cc2)S1 (stereo not drawn) [Compound 3, 5-{4-[2-(2-fluorophenyl)-2-oxoethoxy]benzyl}-1,3-thiazolidine-2,4-dione] | 0.20 |
| O=C1NC(=O)C(Cc2ccc(OCC(=O)c3cccc(F)c3)cc2)S1 (stereo not drawn) [Compound 4, 5-{4-[2-(3-fluorophenyl)-2-oxoethoxy]benzyl}-1,3-thiazolidine-2,4-dione] | 0.24 |
| O=C1NC(=O)C(Cc2ccc(OCC(=O)c3cccc(Cl)c3)cc2)S1 (stereo not drawn) [Compound 7, 5-{4-[2-(3-chlorophenyl)-2-oxoethoxy]benzyl}-1,3-thiazolidine-2,4-dione] | 0.59 |
| O=C1NC(=O)C(Cc2ccc(OCC(=O)c3ccccc3Cl)cc2)S1 (stereo not drawn) [Compound 8, 5-{4-[2-(2-chlorophenyl)-2-oxoethoxy]benzyl}-1,3-thiazolidine-2,4-dione] | 0.47 |
| COc1ccc(C(=O)COc2ccc(CC3SC(=O)NC3=O)cc2)cc1 (stereo not drawn) [Compound 9, 5-{4-[2-(4-methoxyphenyl)-2-oxoethoxy]benzyl}-1,3-thiazolidine-2,4-dione] | 0.76 |
